PMC7478952 (Pharmaceutical Research, 2020)

Assays:
in vivo = details: mouse
Protocol: Mice were sacrificed (n = 2) 0.25, 0.5, 1, 2, 4, 8 and 24 h after p.o. dosing. Blood was collected with heparinized syringe and plasma was separated. Three separate brain regions (cerebellum, front and back part of cerebrum) were isolated. The radioactivity in plasma and brain regions was measured by liquid scintillation counter. […] Plasma and whole brain homogenate samples were processed for metabolite profiling by HPLC with on-line radioisotope detector or liquid scintillation counter.

DAAO [1] = target: DAAO (Homo sapiens, UniProt P14920); test: Inhibition of DAAO activity in vitro; type: biochemical
Sequence of DAAO (Homo sapiens, UniProt P14920) (P14920 whole entry, species assumed): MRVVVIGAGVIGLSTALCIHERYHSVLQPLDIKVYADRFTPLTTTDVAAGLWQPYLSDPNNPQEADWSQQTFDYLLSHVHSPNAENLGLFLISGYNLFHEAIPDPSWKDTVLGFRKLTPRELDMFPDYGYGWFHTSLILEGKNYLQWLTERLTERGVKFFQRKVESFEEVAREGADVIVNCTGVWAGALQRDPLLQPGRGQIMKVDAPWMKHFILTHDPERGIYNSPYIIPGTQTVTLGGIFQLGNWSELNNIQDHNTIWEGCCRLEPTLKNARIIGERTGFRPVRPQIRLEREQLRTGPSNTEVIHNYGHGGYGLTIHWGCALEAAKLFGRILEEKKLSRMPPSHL

[2] = test system: cerebellar-based associative learning; details: mice; cited from earlier work
D-serine in cerebellum [3] = test: Translated human PD model (D-serine in cerebellum); details: taken from the mouse model
Protocol: (§1) The translational modeling steps from the mouse PK/TO/PD model to that for humans are as follows; 1) PK model was replaced by the human PK model predicted from rats with single species allometric scaling approach(6). […] The differential equations of translated human PK/TO/PD model are shown in Eq. S12-S14, 2 and 5. […] The model parameters used for simulation are summarized in Supplementary table 2.
(§2) C1 is calculated by A1/V1. […] Imax represents maximum inhibitory effect of TO on Kout.

[4] = target: T1, D-amino acid oxidase (DAAO) (Mus musculus, UniProt P18894); test: Cerebellum target occupancy of DAAO measured by displacement of tracer PGM019260 (mechanistic binding kinetics model); type: in vivo, C57BL/6 J mice
T1 construct: from tissue
T1 sequence (P18894 whole entry): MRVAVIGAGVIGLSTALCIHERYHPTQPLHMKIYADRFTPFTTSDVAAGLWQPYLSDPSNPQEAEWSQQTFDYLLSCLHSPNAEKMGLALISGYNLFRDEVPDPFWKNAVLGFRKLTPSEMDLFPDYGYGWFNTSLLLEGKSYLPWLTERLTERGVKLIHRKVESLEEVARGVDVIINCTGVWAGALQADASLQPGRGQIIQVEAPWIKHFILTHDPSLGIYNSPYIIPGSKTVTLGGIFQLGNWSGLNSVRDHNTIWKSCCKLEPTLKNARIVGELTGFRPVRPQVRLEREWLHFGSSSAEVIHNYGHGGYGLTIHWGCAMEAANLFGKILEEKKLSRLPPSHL
Protocol: (§3) PGM019260 was formulated in 5% dimethyl sulfoxide and 95% v/v of 20% w/v 2-hydroxypropyl-β-cyclodextrin. […] After 2, 4, 6, 8, 10 and 24 h from oral administration, PGM019260 at 60 μg/kg was administered by intravenous route (i.v.) with a dose volume of 1 mL/kg (n = 4). Mice were sacrificed 20 min after tracer dosing. Blood was collected into heparin containing tubes and plasma was separated.
(§4) The grand mean value of tracer concentration in vehicle treatment group calculated from all the time points (2, 4, 6, 8, 10 and 24 h after vehicle treatment) was used as the baseline of tracer concentration across all the time points. […] The differential equations of PK/TO/PD model are shown below (Eqs. 1, 2 and 5). […] 4 and 6, respectively.1 dAp/dt=−CLp/Vp·Ap 2 dTO/dt=Kon·BRmax−TO·Cp−Koff·TO 3 Tracer concentration=BLtr·1−TO 4 In vivoKd=Koff/Kon×fp 5 dPD/dt=Kin−Kout·BRmax−Imax·TO 6 Kin=BL·Kout
(§5) The convergence criterion was three significant digits.

[5] = Plasma PK of TAK-831 after single oral administration in mice (target occupancy study, 1-compartment model); type: in vivo, C57BL/6 J mice
Protocol: as §3, §4, §5

D-serine in cerebellum [6] = details: cited from earlier work
[7] = Free fraction of TAK-831 in mouse plasma; type: in vitro ADME; details: read-out: fp free fraction in mouse plasma
novel object recognition = details: cited from earlier work
[8] = target: T2, breast cancer resistance protein (BCRP) (Homo sapiens, UniProt Q9UNQ0); test: BCRP substrate assessment; type: in vitro ADME
T2 sequence (Q9UNQ0 1-655): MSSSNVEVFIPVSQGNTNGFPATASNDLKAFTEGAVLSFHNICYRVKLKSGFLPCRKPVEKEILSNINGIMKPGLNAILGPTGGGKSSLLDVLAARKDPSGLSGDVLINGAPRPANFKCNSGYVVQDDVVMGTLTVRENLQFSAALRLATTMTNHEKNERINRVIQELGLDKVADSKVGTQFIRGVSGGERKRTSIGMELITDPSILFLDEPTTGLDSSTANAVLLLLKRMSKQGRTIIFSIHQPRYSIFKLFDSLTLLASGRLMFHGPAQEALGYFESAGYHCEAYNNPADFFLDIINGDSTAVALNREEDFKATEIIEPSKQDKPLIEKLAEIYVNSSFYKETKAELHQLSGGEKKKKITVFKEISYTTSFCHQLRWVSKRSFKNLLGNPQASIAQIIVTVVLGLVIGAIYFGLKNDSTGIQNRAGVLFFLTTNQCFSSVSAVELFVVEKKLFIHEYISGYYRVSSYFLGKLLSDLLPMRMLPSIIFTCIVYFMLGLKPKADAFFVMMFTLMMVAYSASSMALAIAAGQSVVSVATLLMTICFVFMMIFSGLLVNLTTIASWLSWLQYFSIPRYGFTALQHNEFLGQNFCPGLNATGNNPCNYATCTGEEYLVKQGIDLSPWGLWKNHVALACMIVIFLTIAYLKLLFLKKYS

[9] = Translated human PK model (single species allometric scaling from rats)
Protocol: as §1, §2

P-glycoprotein (P-gp) = P-glycoprotein (P-gp) (Homo sapiens, UniProt P08183); test: P-glycoprotein substrate assessment; type: in vitro ADME
Sequence of P-glycoprotein (P-gp) (P08183 whole entry): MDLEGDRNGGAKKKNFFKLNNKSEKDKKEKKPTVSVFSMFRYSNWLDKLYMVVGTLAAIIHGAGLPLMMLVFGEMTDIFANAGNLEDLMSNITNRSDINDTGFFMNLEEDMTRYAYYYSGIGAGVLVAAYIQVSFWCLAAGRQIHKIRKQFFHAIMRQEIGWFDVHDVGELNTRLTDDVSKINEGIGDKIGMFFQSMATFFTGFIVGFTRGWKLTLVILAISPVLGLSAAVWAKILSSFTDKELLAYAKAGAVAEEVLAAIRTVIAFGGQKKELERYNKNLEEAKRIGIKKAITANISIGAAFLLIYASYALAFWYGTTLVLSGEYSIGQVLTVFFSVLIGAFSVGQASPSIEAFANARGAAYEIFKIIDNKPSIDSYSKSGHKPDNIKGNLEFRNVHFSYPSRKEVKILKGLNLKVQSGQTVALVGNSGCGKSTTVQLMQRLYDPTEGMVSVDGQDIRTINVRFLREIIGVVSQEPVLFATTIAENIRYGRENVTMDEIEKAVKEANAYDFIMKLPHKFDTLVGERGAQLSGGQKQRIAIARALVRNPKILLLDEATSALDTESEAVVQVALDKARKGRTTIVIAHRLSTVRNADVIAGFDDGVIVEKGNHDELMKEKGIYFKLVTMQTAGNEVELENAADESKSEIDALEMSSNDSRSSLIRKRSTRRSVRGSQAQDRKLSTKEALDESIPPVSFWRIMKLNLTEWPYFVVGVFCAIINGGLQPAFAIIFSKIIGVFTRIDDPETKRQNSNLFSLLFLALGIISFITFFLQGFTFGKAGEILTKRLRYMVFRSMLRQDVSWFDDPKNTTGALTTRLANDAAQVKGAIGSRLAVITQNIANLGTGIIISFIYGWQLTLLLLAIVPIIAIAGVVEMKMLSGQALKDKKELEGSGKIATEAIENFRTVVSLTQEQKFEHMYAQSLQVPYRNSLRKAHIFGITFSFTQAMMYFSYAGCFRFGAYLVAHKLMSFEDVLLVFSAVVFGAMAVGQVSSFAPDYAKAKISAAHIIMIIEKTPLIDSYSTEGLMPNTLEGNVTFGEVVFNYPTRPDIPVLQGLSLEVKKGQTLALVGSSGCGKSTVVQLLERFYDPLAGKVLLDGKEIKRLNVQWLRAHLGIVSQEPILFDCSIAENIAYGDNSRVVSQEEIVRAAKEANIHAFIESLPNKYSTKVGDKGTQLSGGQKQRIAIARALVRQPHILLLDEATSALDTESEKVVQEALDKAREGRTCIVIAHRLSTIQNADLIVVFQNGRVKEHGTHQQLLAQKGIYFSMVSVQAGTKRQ

[10] = test system: social interaction (model of negative symptoms); details: Balb/c mice; cited from earlier work
DAAO [11] = details: human, taken from the mouse model
Protocol: as §1, §2

[12] = Free fraction of TAK-831 in human plasma; type: in vitro ADME; details: read-out: fp,human free fraction in plasma
DAAO [13] = test system: DAAO; set-up: method as in PMID 28780732; details: pre-treatment; cited from earlier work
mouse DAAO = test system: mouse DAAO; set-up: method as in PMID 28780732; details: cited from earlier work
human DAAO = test system: human DAAO; set-up: method as in PMID 28780732; details: cited from earlier work

With O=c1[nH]nc(CCc2ccc([14C](F)(F)F)cc2)cc1O [[^14C]TAK-831] the “dose dependency of plasma exposure of radioactivity” value (in vivo) was “increased almost dose-proportionally”.

In the case of O=c1[nH]nc(CCc2ccc(C(F)(F)F)cc2)cc1O [TAK-831, 4-hydroxy-6-{2-[4-(trifluoromethyl)phenyl]ethyl}pyridazin-3(2H)-one], the “in vitro IC50 values on enzymatic activity, mice vs humans” value (DAAO [1]; comparison between mouse and human enzyme) is given as “comparable between mice and humans”, the IC50 (DAAO [1]; read-out: 50% inhibitory concentration (IC50) of DAAO activity in vitro (converted)) is given as 6.33 nM and the “acquisition of the conditioned response” value [2] is given as “improvement in the acquisition of the conditioned response”. For the same molecule, the scopolamine induced deficit [2] was “reversing the scopolamine induced deficit”, the “Imax maximum inhibitory effect” value (D-serine in cerebellum [3]) was 0.877 and the Kd [4] was 0.809 nM. The “fold by which in vivo Kd is lower than in vitro IC50” value ([4]; in vivo Kd vs in vitro IC50) was “about 8 fold”, the “Kon association rate constant” value ([4]; mice cerebellum, against total plasma concentration, model estimate) was 0.0372 mL/ng/h and the “BRmax maximum binding ratio” value ([4]; mice cerebellum, model estimate) was 0.987. For the same molecule, the “accumulation of PK or TO after once daily multiple doses (empirical, separate studies)” value ([4]; mice, once daily multiple doses, data not shown) was “no accumulation was observed”, the “TAK-831 dosage at which maximum decline of tracer concentration was observed” value ([4]; mice, single p.o., tracer PGM019260 in cerebellum) was at least 3 mg/kg and the koff ([4]; mouse, read-out: Koff dissociation rate constant) was 3.14e-05 s⁻¹. For the same molecule, the CL/F ([5]; C57BL/6 J, mouse, plasma, po, single p.o. 0.3-10 mg/kg, model estimate, read-out: CLp oral clearance (converted)) was 85.7 mL/min/kg, the Tmax ([5]; C57BL/6 J, mouse, plasma, po, single p.o., first sampling at 2 h) was at most 2 h and the “dose dependency of plasma exposure” value ([5]; p.o. dose range 0.3 to 10 mg/kg) was “increased almost dose-proportionally”. For the same molecule, the “Vp apparent volume of distribution” value ([5]; single p.o. 0.3-10 mg/kg, model estimate) was 35.7 L/kg, the “D-serine levels in the cerebellum of normal mice” value (D-serine in cerebellum [6]) was “increase D-serine levels” and the fraction unbound [7] was 0.077. The Kp (in vivo; C57BL/6 J) was 0.181, the fraction unbound (in vivo; C57BL/6 J) was 0.425 and the “time by which equilibrium across BBB was reached” value (in vivo; C57BL/6 J) was at most 0.25 h. For the same molecule, the Kp uu (in vivo) was 1, the “dose at which efficacy was observed” value (novel object recognition; acute oral dose in mice) was at least 0.3 mg/kg and the “identification of the novel object” value (novel object recognition; range of acute and chronic doses in mice) was “able to identify the novel object”. The “substrate of breast cancer resistance protein (BCRP)” value [8] was “neither a substrate”, the “Ka absorption rate constant” value [9] was 0.218 h⁻¹ and the “substrate of P-glycoprotein (P-gp)” value (P-glycoprotein (P-gp)) was “neither a substrate”. The “efficacy in social interaction model” value [10] was “efficacious”, the “BRmax maximum binding ratio” value (DAAO [11]) was 0.987 and the fraction unbound [12] was 0.0067.

For O=C([O-])c1ccccc1.[Na+] [sodium benzoate], the “displacement of PGM019260 in the mouse cerebellum” value (DAAO [13]) is given as “dose dependent displacement”.

For COc1ccc(CSc2c[nH]c(=O)c(O)c2)cn1 [PGM019260], the “DAAO inhibition in mouse enzyme in vitro” value (mouse DAAO) is given as “highly potent DAAO inhibition” and the “DAAO inhibition in human enzyme in vitro” value (human DAAO) is given as “highly potent DAAO inhibition”.
